This is an account of results in patent publication EP0284202A1, “Substituted hydantoin compounds” (THE WELLCOME FOUNDATION LIMITED, priority 1987, dated 1988).

As usually defined, the Kb is the affinity of an antagonist, worked out from how it opposes an agonist.

Each structure is given as a SMILES string.

For assay [1], the target named is T1, PGD₂ receptor on the human platelet (Homo sapiens, UniProt Q13258).
T1 construct: endogenous in cells; host or cells: washed human platelets
T1 sequence (Q13258 1-359): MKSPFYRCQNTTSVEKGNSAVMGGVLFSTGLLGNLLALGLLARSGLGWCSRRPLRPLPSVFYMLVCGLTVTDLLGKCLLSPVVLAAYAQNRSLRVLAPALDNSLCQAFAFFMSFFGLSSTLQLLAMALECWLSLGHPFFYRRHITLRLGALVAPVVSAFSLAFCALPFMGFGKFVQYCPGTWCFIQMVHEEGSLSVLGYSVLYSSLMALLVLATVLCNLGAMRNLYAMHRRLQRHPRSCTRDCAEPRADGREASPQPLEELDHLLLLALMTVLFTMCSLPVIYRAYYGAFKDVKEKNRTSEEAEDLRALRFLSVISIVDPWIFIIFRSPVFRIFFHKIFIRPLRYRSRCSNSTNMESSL
Briefly: Inhibition of ADP-induced aggregation in washed human platelets: antagonism of PGD₂ and compound A, Schild analysis. Format: cell-based. The protocol: Washed platelet suspensions were prepared according to a modified version of the method of Vargas et al (Prostaglandins (1982) 23, 929). The suspension was then stored at 4°C for 2 hours and, before use, the following additions were made: Ca⁺⁺ʼ […], indomethacin, 5mcg ml⁻¹; and fibrinogen, 400 mcg ml⁻¹. Aggregation responses were measured using 0.5ml aliquots of the suspension maintained at 37°C and stirred with a metal bar at 900 r.p.m. in 300 BD-S Payton dual channel aggregometers and recorded on Gould BS 272 pen recorders.
Inhibition of platelet aggregation by PGD₂ and compound A were studied as follows. The prostaglandin receptor agonists were incubated in the platelet suspension for 6 minutes prior to adding ADP (5 × 10⁻⁵M). The reproducibility of the ADP-induced aggregation response was checked at intervals throughout the experiment. Antagonists were added 2 minutes before the agonist. Responses were expressed as percent inhibitions of the standard ADP-induced aggregation.
(§1) Measurement of antagonist affinity (pKB) was by Schild analysis.

Another assay deals with rabbit jugular vein. Briefly: Rabbit jugular vein relaxation: antagonism of PGD₂ and compound A. The conditions noted are these: potency compared with the antagonism in platelet aggregation. How it is done:
Vascular smooth muscle relaxation in response to PGD₂ and compound A was measured as changes in isometric force. Isolated ring segments of rabbit jugular vein suspended in Kreb's buffer, gassed with 95% O₂/5% CO₂ and maintained at 37°C, were treated with: indomethacin, 1 µg ml⁻¹, and the stable thromboxane receptor antagonist BM13177 (Patscheke et al, Biomed. Biochem. Acta (1984) 43, 5321), 30µM. The experiments followed a paired curve design.
Initially, the jugular vein ring segments were subjected to a force of 0.75g, then allowed to stabilize for a period of 60 minutes during which time the preparations were washed three times. Subsequently histamine (10⁻⁶M) was added to produce tone. After establishing a stable contraction, relaxation/concentration effect curves were obtained using prostaglandin receptor agonists. Responses were expressed as per cent relaxations of the histamine-induced force. The preparations were then washed thoroughly and allowed to re-stabilise. The antagonists were then incubated for 60 minutes prior to constriction with histamine (10⁻⁶M), followed by a second determination of the prostaglandin agonist concentration effect curve.
as §1

The subject of assay [2] is prostaglandin receptors other than DP. Briefly: Actions at other prostaglandin receptors (selectivity). The settings on record: actions not observed up to this multiple.

Consider `O=C(O)CCCCCCC1C(=O)N(Cc2ccccc2)C(=O)N1NCC(O)C1CCCCC1` (centres unmarked) [Example 3, 3-Benzyl-5-(6-carboxylhexyl)-1-(2-hydroxy-2-cyclohexylethylamino) hydantoin], for which, in assay [1] (antagonist affinity by Schild analysis, shifts of anti-aggregatory concentration effect curves for PGD₂ and compound A, human washed platelets), the Kb is 0.55 nM. In assay [1] (anti-aggregatory concentration effect curves for PGD₂ and compound A, human washed platelets), the Schild plot slope result is “unity”. The “behaviour at the PGD₂ receptor on the human platelet” value in assay [1] (human washed platelet assay, agonists PGD₂ and compound A) was “simple competitive antagonist”. In the assay with rabbit jugular vein, the “antagonism of the relaxation effects of PGD₂ and compound A” value is reported as “antagonised with similar potencies”. Besides, the “concentrations without actions at prostaglandin receptors other than DP, relative to that required for DP receptor affinity” value in assay [2] is more than 1000 ×.
